Assay results as given in US7304090B2, “Inhibition of the cystic fibrosis transmembrane conductance regulator chloride channel” (The University of Bristol, priority 2000, dated 2007).
Where two headings read alike, the source gives them in different places.

What was measured:
[1] = tested on: Type I Madin-Darby canine kidney (MDCK) cells; experiment: Cyst growth of MDCK cells in collagen gels with cAMP agonists; format: cell-based; details: for size of cysts (phase-contrast): days 12 to 21; for cyst volume: day 21 vs day 12
Experimental: (§1) For cyst growth and cell proliferation experiments, we used Type I Madin-Darby canine kidney (MDCK) cells. We chose Type I MDCK cells because they form cysts when grown in collagen gels in the presence of cAMP agonists (26) and because they express the CFTR Cl^− channel (27). MDCK cells were cultured in MDCK media (a 1:1 mixture of Dulbecco's Modified Eagle Medium (DMEM) and Ham's F-12 nutrient medium supplemented with 100 U ml^−1 penicillin, and 100 μg ml^−1 streptomycin and either 10% fetal bovine serum (FBS; cyst growth) or 5% FBS and 1% insulin-transferrin-selenium-X (ITS-X) supplement (cell proliferation); all from Life Technologies Ltd, Paisley, UK) at 37° C. in a humidified atmosphere of 5% CO2.
To grow cysts, MDCK cells were cultured in collagen gels using a modification of the method of Grantham et al. (26). Cells were trypsinized with 0.25% (wt/vol) trypsin for 30 minutes at 37° C., diluted with MDCK media containing 10% FBS to form a suspension of between 1-3×10^4 cells ml^−1, and aliquoted into individual wells of a 24-well plate (0.1 ml per well). Each well contained 0.4 ml of ice-cold Vitrogen (3.0 mg ml^−1 collagen; Cohesion Technologies Inc., Palo Alto, USA) supplemented with 10% (vol/vol) 10× minimum essential medium, 10 mM N-[2-hydroxyethyl]piperazine-N′-[2-ethanesulphonic acid] (Hepes), 27 mM NaHCO3, 100 U ml^−1 penicillin, and 100 μg ml^−1 streptomycin, and adjusted to pH 7.4 with NaOH. The 24-well plate was gently agitated to distribute cells throughout the Vitrogen and incubated in a water bath at 37° C. for 90 minutes to promote gelation of the Vitrogen.
After gelation, 1.5 ml MDCK media containing 10% FBS was added to each well of the 24-well plate. To promote cyst growth, we added cAMP agonists (forskolin (10 μM), 3-isobutyl-1-methylxanthine (IBMX; 100 μM), and 8-(4-chlorophenylthio) adenosine 3′:5′-cyclic monophosphate (CPT-cAMP; 500 μM)) to the MDCK media. Plates were maintained at 37° C. in a humidified atmosphere of 5% CO2 and the MDCK media containing cAMP agonists changed every three days.
Twelve days after seeding collagen gels with MDCK cells, cysts were readily detected at ×1000 magnification using an inverted microscope with phase contrast optics (Leica, model DMIL, Milton Keynes, UK). To test the effect of CFTR modulators on cyst growth, drugs were added to MDCK media in the continued presence of cAMP agonists. MDCK media containing cAMP agonists and CFTR modulators was changed every 3 days for a total period of 9 days. Photographs of individual cysts were taken before the addition of CFTR modulators and at three day intervals over the duration of the experiment. To identify individual cysts, each cyst was assigned a unique reference number using a grid placed below the 24-well plate.
The diameter of cysts was measured directly from photographs of cysts using images that had been magnified by identical amounts. By assuming that cysts are spherical in shape, we calculated cyst volume ( 4/3·π·r^3).

[2] = tested on: Type I MDCK cells; experiment: Proliferation of MDCK cells (cell counting); format: cell-based, canine
Experimental: as §1
To test the effect of CFTR modulators on the proliferation of MDCK cells, we used Type I MDCK cells grown in media containing 5% FBS and 1% ITS-X supplement. On day −1, MDCK cells were seeded at 7.5×10^4 cells ml^−1 in 35 mm dishes containing MDCK media with 1% FBS and 1% ITS-X supplement. On day 0, the concentration of FBS was reduced further to 0.01% and CFTR modulators added to the MDCK media. MDCK media containing CFTR modulators was changed every 2 days for a total period of 6 days. To determine the number of cells per 35 mm dish, Type I MDCK cells were harvested using trypsin (0.25% wt/vol), centrifuged at 1200 rpm for 5 min and resuspended in 1 ml of MDCK media before counting using a haemocytometer.

[3] = target: T1, wild-type human CFTR (Homo sapiens, UniProt P13569); experiment: CFTR Cl− channels recorded in excised inside-out membrane patches from C127 cells (patch-clamp); format: biochemical; details: for channel block at positive voltages / effect on CFTR Cl− currents at negative voltages / voltage-dependence of CFTR inhibition: symmetrical 147 mM Cl−; for effect on CFTR Cl− currents: PKA and ATP present; for rank order of potency for CFTR inhibition / stimulation of CFTR channel activity: concentration-response, FIG. 3; for voltage-dependence of CFTR inhibition: voltage ramp ±100 mV, ATP 1 mM
T1 construct: expressed in transfected cells
T1 sequence (P13569 whole entry): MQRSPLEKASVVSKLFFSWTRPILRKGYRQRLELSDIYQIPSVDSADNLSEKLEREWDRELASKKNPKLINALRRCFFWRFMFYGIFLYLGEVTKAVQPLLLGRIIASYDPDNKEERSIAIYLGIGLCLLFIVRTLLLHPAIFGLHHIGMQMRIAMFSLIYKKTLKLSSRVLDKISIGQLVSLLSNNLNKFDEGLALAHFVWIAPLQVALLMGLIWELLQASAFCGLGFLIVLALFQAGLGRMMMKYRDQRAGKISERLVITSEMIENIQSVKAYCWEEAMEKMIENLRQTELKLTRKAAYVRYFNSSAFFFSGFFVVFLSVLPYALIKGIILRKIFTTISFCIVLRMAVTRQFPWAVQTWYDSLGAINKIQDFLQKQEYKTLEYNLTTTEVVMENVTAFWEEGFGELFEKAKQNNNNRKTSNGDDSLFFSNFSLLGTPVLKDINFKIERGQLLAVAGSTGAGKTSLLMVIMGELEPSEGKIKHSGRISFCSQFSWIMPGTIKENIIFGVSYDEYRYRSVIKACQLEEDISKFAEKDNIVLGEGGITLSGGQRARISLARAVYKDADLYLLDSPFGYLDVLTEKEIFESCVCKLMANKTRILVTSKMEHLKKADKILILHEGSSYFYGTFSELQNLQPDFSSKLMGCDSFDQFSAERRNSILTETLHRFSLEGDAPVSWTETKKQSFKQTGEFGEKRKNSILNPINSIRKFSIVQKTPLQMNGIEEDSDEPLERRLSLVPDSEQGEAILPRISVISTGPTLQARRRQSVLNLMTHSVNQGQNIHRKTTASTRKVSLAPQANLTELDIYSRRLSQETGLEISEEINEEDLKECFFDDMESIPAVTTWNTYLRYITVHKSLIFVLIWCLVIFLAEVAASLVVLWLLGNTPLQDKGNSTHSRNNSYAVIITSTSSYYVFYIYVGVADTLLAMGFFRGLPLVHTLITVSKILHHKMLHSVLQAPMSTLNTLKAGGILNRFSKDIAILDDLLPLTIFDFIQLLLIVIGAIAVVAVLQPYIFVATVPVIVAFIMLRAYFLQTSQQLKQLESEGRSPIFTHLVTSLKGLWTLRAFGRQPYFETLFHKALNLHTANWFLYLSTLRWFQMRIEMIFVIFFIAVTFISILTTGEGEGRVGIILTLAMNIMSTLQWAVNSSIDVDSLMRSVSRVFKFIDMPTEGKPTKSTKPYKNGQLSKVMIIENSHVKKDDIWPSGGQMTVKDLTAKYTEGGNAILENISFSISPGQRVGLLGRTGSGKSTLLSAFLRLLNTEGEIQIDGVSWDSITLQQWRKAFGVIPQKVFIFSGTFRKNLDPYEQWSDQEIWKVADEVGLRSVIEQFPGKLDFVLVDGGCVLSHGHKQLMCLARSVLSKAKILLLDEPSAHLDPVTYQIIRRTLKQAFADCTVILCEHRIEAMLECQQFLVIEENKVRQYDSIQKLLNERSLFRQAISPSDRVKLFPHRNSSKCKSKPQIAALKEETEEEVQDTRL
Experimental: For electrophysiological experiments, we used mouse mammary epithelial cells (C127 cells) stably expressing wild-type human CFTR (12). C127 cells expressing wild-type CFTR were cultured as previously described (10). Cells were seeded onto glass coverslips and used within 48 h.
The established sign convention was used throughout; currents produced by positive charge moving from intra- to extracellular solutions (anions moving in the opposite direction) are shown as positive currents.
[…] […] All experiments were conducted at 37° C.
PKA was maintained in the intracellular solution for the duration of experiments. Unless otherwise stated, voltage was −50 mV.
In time course studies, each point is the average current for a 4 s period with data points collected continuously; no data were collected while solutions were changed. Average current (I) for a specific intervention was determined as the average of all the data points collected during the intervention. […] Mean data were fitted to a linear form of equation (1) using linear least-squares regression to yield Ki and n values.
To measure single-channel current amplitude (i), Gaussian distributions were fitted to current amplitude histograms. For open probability (Po) and kinetic analyses, lists of open and closed times were created using a half-amplitude crossing criterion for event detection. Transitions <1 ms in duration were excluded from the analyses. Po was calculated using the equation: Po=(T1+T2+ . . . +TN)/(NTtot), (2) where N is the number of channels; Ttot is the total time analysed, and T1 is the time that one or more channels are open, T2 is the time two or more channels are open and so on. Only membrane patches that contained a single active channel were used for single-channel kinetic analyses.
To investigate whether inhibition of CFTR by fluorescein derivatives was voltage dependent, we used voltage ramp protocols. Macroscopic current-voltage (I-V) relationships were obtained in the absence and presence of fluorescein derivatives by averaging currents generated by 15-30 ramps of voltage each of 2 s duration; holding voltage was −50 mV. Basal currents recorded in the absence of PKA and ATP were subtracted from those recorded in the absence and presence of fluorescein derivatives to determine the effect of these agents on CFTR Cl^− currents.

Q: For `O=C(O)c1c(Cl)c(Cl)c(Cl)c(Cl)c1-c1c2cc(Br)c(=O)c(Br)c-2oc2c(Br)c(O)c(Br)cc12` [phloxine B], which “size of cysts (phase-contrast)” value ([1]; 40 μM) is on record?
A: visible decrease in the size of cysts

Q: And the “inhibition of cell growth in the presence of cAMP agonists” value [2]?
A: unaffected by cAMP agonists

Q: And the “rank order of prevention of cell growth” value [2]?
A: ouabain (1 μM)=phloxine B (40 μM)=genistein (100 μM)=NPPB (400 μM)>glibenclamide (100 μM)

Q: And the “cell growth (number of cells), day 0 to 6” value (shortened to “cell growth … to 6”) ([2]; 40 μM)?
A: prevented cell growth

Q: And the “n (slope factor, Hill coefficient) of CFTR inhibition” value [3]?
A: 2

Q: What about the “potency of CFTR inhibition compared with glibenclamide” value [3] of the same compound?
A: potency greater than or equal to that of glibenclamide

Q: And the “reversibility of CFTR inhibition” value [3]?
A: partially reversible

Q: What about the “effect of ATP (5 mM) on inhibition of CFTR Cl− currents” value ([3]; 20 μM) of the same compound?
A: fails to relieve

Q: What about the “pattern of channel gating” value ([3]; 20 μM) of the same compound?
A: dramatically altered the pattern of channel gating

Q: And the “open probability (Po)” value ([3]; 20 μM, P<0.05 vs control)?
A: significantly decreased

Q: What about the “single-channel current amplitude (i)” value ([3]; 20 μM, P<0.05 vs control) of the same compound?
A: significantly decreased

Q: And the “channel block at positive voltages” value ([3]; 40 μM)?
A: relieved

Q: And the “effect on CFTR Cl− currents at negative voltages” value ([3]; 40 μM)?
A: decreased CFTR Cl^− currents

Q: What about the “effect on CFTR Cl− currents” value ([3]; 1-5 μM in intracellular solution) of the same compound?
A: stimulated

Q: And the “effect on CFTR Cl− currents” value ([3]; 20-50 μM in intracellular solution)?
A: concentration-dependent decrease

Q: And the “rank order of potency for CFTR inhibition” value [3]?
A: bengal rose B>phloxine B>eosin Y≧tetrachlorofluorescein>>fluorescein

Q: And the “stimulation of CFTR channel activity” value [3]?
A: stimulated channel activity

Q: What about the “effect on activity of CFTR Cl− channels” value ([3]; in the absence of either ATP or PKA) of the same compound?
A: without effect

Q: What about the “effect on channel block by glibenclamide (50 μM)” value ([3]; phloxine B 1 μM) of the same compound?
A: failed to prevent channel block

Q: And the “I (average CFTR Cl− current) relative to control” value ([3]; phloxine B 20 μM together with glibenclamide 50 μM)?
A: 10±2 % of the control value

Q: What about the “I (average CFTR Cl− current) relative to control” value ([3]; phloxine B 20 μM, ATP 5 mM) of the same compound?
A: 51±5 % of the control value

Q: What about the “I (average CFTR Cl− current) relative to control” value ([3]; phloxine B 20 μM, […]) of the same compound?
A: 56±6 % of the control value

Q: And the “I (average CFTR Cl− current) relative to control” value ([3]; phloxine B 20 μM, […], listed as Phloxine B)?
A: 59±4 % of the control value

Q: And the “voltage-dependence of CFTR inhibition” value [3]?
A: voltage-dependent

Q: Which “cell growth … to 6” value ([2]; 200 μM) does the source give for `O=C(O)c1c(Cl)c(Cl)c(Cl)c(Cl)c1-c1c2ccc(=O)cc-2oc2cc(O)ccc12` [tetrachlorofluorescein] here?
A: inhibited the proliferation

Q: And the “potency of CFTR inhibition compared with glibenclamide” value [3]?
A: less potently than glibenclamide

Q: What about the “reversibility of CFTR inhibition” value [3] of the same compound?
A: partially reversible

Q: What about the “open probability (Po)” value ([3]; 100 μM) of the same compound?
A: decreasing

Q: And the “single-channel current amplitude (i)” value ([3]; 100 μM)?
A: decreasing

Q: What about the “channel block at positive voltages” value ([3]; 100 μM) of the same compound?
A: relieved

Q: What about the “effect on CFTR Cl− currents at negative voltages” value ([3]; 100 μM) of the same compound?
A: decreased CFTR Cl^− currents

Q: And the “n (slope factor, Hill coefficient) of CFTR inhibition” value ([3]; ATP 0.3 mM, PKA 75 nM, −50 mV)?
A: 0.7

Q: And the Ki ([3]; ATP 0.3 mM, PKA 75 nM, −50 mV, 37° C., drug in intracellular solution, read-out: Ki (drug concentration causing half-maximal inhibition of CFTR Cl− current, Hill plot))?
A: 58 µM

Q: What about the “rank order of potency for CFTR inhibition” value [3] of the same compound?
A: bengal rose B>phloxine B>eosin Y≧tetrachlorofluorescein>>fluorescein

Q: And the “voltage-dependence of CFTR inhibition” value [3]?
A: voltage-dependent

Q: Which results are given for `O=[N+]([O-])c1ccc(C=Cc2ccc([N+](=O)[O-])cc2S(=O)(=O)O)c(S(=O)(=O)O)c1` [DIDS, 4,4′-dinitrostilbene-2,2′-disulphonic acid]?
A: cyst volume ([1]; 200 μM, P>0.5): exception; size of cysts (phase-contrast) ([1]; 200 μM): without effect on cyst growth; cell growth (number of cells), day 0 to 6 ([2]; 200 μM): exception; effect on activity of CFTR ([3]; 200 μM, added to the intracellular side): potently inhibited

Q: `O=c1c(-c2ccc(O)cc2)coc2cc(O)cc(O)c12` [genistein] was tested. Which “rank order of decrease of cyst volume” value [1] did it give?
A: glibenclamide (100 μM)≧ouabain (1 μM)≧NPPB (400 μM)≧genistein (100 μM)>bumetanide

Q: And the cyst volume ([1]; 100 μM)?
A: decreased cyst volume

Q: What about the “inhibition of cell growth in the presence of cAMP agonists” value [2] of the same compound?
A: unaffected by cAMP agonists

Q: And the “rank order of prevention of cell growth” value [2]?
A: ouabain (1 μM)=phloxine B (40 μM)=genistein (100 μM)=NPPB (400 μM)>glibenclamide (100 μM)

Q: And the “cell growth … to 6” value ([2]; 100 μM)?
A: prevented cell growth

Q: What does the source list for `CCCCNc1cc(C(=O)O)cc(S(N)(=O)=O)c1Oc1ccccc1` [bumetanide]?
A: rank order of decrease of cyst volume [1]: glibenclamide (100 μM)≧ouabain (1 μM)≧NPPB (400 μM)≧genistein (100 μM)>bumetanide; cyst volume ([1]; 100 μM): decreased cyst volume; cell growth (number of cells), day 0 to 6 ([2]; 100 μM): exception

Q: For `O=C1OC2(c3ccc(O)cc3Oc3cc(O)ccc32)c2ccccc21` [fluorescein], which “rank order of potency for CFTR inhibition” value [3] is on record?
A: bengal rose B>phloxine B>eosin Y≧tetrachlorofluorescein>>fluorescein

Q: Which results are given for `O=C(O)c1cc([N+](=O)[O-])ccc1NCCCc1ccccc1` [NPPB, 5-nitro-2-(3-phenylpropylamino)-benzoic acid]?
A: rank order of decrease of cyst volume [1]: glibenclamide (100 μM)≧ouabain (1 μM)≧NPPB (400 μM)≧genistein (100 μM)>bumetanide; cyst volume ([1]; 400 μM): decreased cyst volume; size of cysts (phase-contrast) ([1]; 400 μM): visible decrease in the size of cysts; inhibition of cell growth in the presence of cAMP agonists [2]: unaffected by cAMP agonists; rank order of prevention of cell growth [2]: ouabain (1 μM)=phloxine B (40 μM)=genistein (100 μM)=NPPB (400 μM)>glibenclamide (100 μM); cell growth (number of cells), day 0 to 6 ([2]; 400 μM): prevented cell growth

Q: `O=C1OC2(c3cc(I)c(O)c(I)c3Oc3c2cc(I)c(O)c3I)c2c(Cl)c(Cl)c(Cl)c(Cl)c21` [bengal rose B] was tested. Which “cell growth … to 6” value ([2]; 5 μM) did it give?
A: inhibited the proliferation

Q: And the “potency of CFTR inhibition compared with glibenclamide” value [3]?
A: potency greater than or equal to that of glibenclamide

Q: What about the “reversibility of CFTR inhibition” value [3] of the same compound?
A: irreversible

Q: And the “single-channel activity (i and/or Po)” value ([3]; 10 μM)?
A: never able to resolve discrete channel openings

Q: And the “rank order of potency for CFTR inhibition” value [3]?
A: bengal rose B>phloxine B>eosin Y≧tetrachlorofluorescein>>fluorescein

Q: What about the “stimulation of CFTR channel activity” value [3] of the same compound?
A: stimulated channel activity
